Results from publication PMC8778984 (Pharmaceutics, 2021).
“Also recorded” adds a separate entry of the source. Like-named read-outs stand apart in the source and are kept apart here.

Legend:
CNS-1 rat glioma cells = experiment: Growth inhibition, MTT viability assay, CNS-1 cells; format: cell-based; conditions: for inhibition compared with MTX (in words): CNS-1 (Figure 4B), at 10 µM, to a lesser extent at 1 µM; for antiproliferative potency compared with MTX (in words): MTX-sensitive cell line CNS-1, 48 h MTT; for antiproliferative potency, BSA–S–S–MTX compared with BSA–(CH2)6–MTX (in words): sensitive glioma cell line CNS-1
Description: (§1) In this study, we used two glioma cell lines: (i) CNS-1; rat glioma; (ii) U251; human glioma. Cells were a generous gift from Dr. Yael Mardor from the Sheba Medical Center, Israel.
(§2) Cancer cell lines were grown in monoculture in 96-well plates in RPMI (CNS-1 cells) or DMEM containing 10% fetal bovine serum, 2 mM L-glutamine, penicillin (100 units/mL), and streptomycin (0.1 mg/mL) under humidified atmosphere containing 5% CO2. […] Cell viability was measured after 48 h using a standard MTT (3-(4,5-dimethylthiazol-2-yl)-2,5-diphenyltetrazolium bromide) assay, as described before.

U251 human glioma cells = experiment: Growth inhibition, MTT viability assay, U251 cells; format: cell-based; conditions: for antiproliferative potency compared with MTX (in words): MTX-insensitive glioma cell line U251, 48 h MTT; for antiproliferative potency, BSA–S–S–MTX compared with BSA–(CH2)6–MTX (in words): insensitive glioma cell line U251
Description: as §1, §2

glioma cell lines = conditions: read-out: average EC50; variety of glioma cell lines, large variation among lines; cited from earlier work
[1] = design: method as in printed; conditions: ref not given, cited from earlier work
[2] = target: T1, DHFR (dihydrofolate reductase), partially purified from chicken liver (Gallus gallus, UniProt P00378); experiment: Cell-free enzymatic assay for DHFR (NADPH oxidation, absorbance at 340 nm); format: biochemical; conditions: for % Inhibition relative to MTX: DHFR inhibitory potency relative to MTX
T1 construct: Fresh chicken liver (20 g) was cut into pieces, homogenized in 0.1 M MnCl2 and centrifuged; from tissue; host or cells: chicken liver
T1 sequence (P00378 1-189): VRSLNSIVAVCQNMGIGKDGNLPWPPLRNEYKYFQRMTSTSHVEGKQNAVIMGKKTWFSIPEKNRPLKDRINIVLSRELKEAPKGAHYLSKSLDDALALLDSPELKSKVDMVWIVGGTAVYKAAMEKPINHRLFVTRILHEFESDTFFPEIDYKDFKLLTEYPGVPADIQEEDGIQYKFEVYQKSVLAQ
Description: This was carried out by the procedure of Kaufman and Kemerer with some modifications: Fresh chicken liver (20 g) was cut into pieces, homogenized in 0.1 M MnCl2 and centrifuged. The supernatant was brought to pH 5–6 with HCl, and ZnSO4 was added gradually to obtain a final concentration of 20 mM. The pH was elevated to pH 7.5–8 by the addition of solid NaHCO3. […] The proteins that remained in the supernatant were precipitated with 4.54 M ammonium sulfate. The precipitate was then dissolved in 50 mM Tris-HCl (pH 7.5) containing 0.1 M KCl and dialyzed for two days against the same buffer, and then frozen in aliquots at −80 °C until used.
(§3) The assay was based on DHFR-dependent reduction of dihydrofolate to tetrahydrofolate. In this process, NADPH is oxidized to NADP, and the extent of the oxidation is monitored by the decrease in absorbance at 340 nm. Tubes containing 1.0 mL each of 0.05 M Tris-HCl buffer (pH 7.5) 0.5 M KCl, 0.137 mM NADPH, and 0.187 mM DHF were incubated for 1 h at 25 °C in the absence and the presence of partially purified DHFR (35 µg/mL) and increasing concentrations of MTX or its derivatives. The absorbance at 340 nm was then monitored.
Figure 1 Inhibition of dihydrofolate reductase by MTX and MTX analogues. The indicated concentrations of MTX and its derivatives were analyzed for their potencies to inhibit the reduction of dihydrofolate to tetrahydrofolate by DHFR. In this process, NADPH is oxidized to NADP and the extent of this oxidation is monitored by the decrease in absorbance at 340 nm (experimental section).

[3] = target: T2, DHFR (dihydrofolate reductase) (Gallus gallus, UniProt P00378); experiment: Reactivation of BSA–MTX analogues by DTT, GSH or L-cysteine, read out as DHFR inhibitory potency; format: biochemical, chicken; conditions: for Fold Reactivation by DTT: 2 mM DTT (dithiothreitol); for reactivation by glutathione and L-cysteine (in words): GSH or L-cysteine at concentrations of 100 μM or lower; for % Activity Relative to MTX: Table 2, + 2 mM DTT
T2 construct: Fresh chicken liver (20 g) was cut into pieces, homogenized in 0.1 M MnCl2 and centrifuged; from tissue; host or cells: chicken liver
T2 sequence (P00378 1-189): T1 sequence (P00378 1-189)
Description: as §3
A solution of BSA–GSSG–MTX (50 μM in 0.1 M HEPES buffer, pH 7.4, 130 mM NaCl) was divided into plastic tubes (1.0 mL/tube) and incubated for 2 h at 25 °C in the absence and the presence of 2 mM DTT and the indicated concentrations of either GSH or L-cysteine. Samples were then analyzed for their DHFR inhibitory potencies and the IC50 values were determined. Results are expressed as percent of maximal reactivation (obtained by preincubation with 2 mM DTT). Each point is the arithmetic mean of n = 4 tubes ± SEM.

[4] = Maleimide–thiol exchange assay (incubation with GSH, dialysis, absorbance at 372 nm); format: physicochemical
Description: BSA–S–MAL–(CH2)3–CONH–MTX (0.2 mM) was dissolved in 1.0 mL 0.1 M HEPES, pH 7.3, and transferred to a tube containing 7.5 mg GSH corresponding to […] which are 100 molar excess over the conjugate. The solution was incubated for 7 h at 37 °C, followed by extensive dialysis and lyophilization. Absorbance was read at 372 nm.

cancer cell lines = experiment: Antiproliferative efficacy in the cancer cell lines (unpublished results); format: cell-based
[5] = Table 1, 1 h at 25 °C, 0.137 mM NADPH, 0.187 mM DHF, read-out: IC50
[6] = Table 2, without DTT, read-out: DHFR Inhibitory Potency (IC50)

CN(Cc1cnc2nc(N)nc(N)c2n1)c1ccc(C(=O)N[C@@H](CCC(=O)O)C(=O)O)cc1 [Methotrexate, reference compound]
viability in comparison to nontreated cells (CNS-1 rat glioma cells; CNS-1, at maximal effect, 48 h): 36% | EC50 (CNS-1 rat glioma cells; Rattus norvegicus, Glioma cell, CNS-1, 48 h, MTT, read-out: EC50 (concentration needed to obtain 50% of viable cells relative to untreated cells)): ~0.07 µM | Emax (CNS-1 rat glioma cells; Rattus norvegicus, Glioma cell, CNS-1, within 48 h, read-out: maximal effect): 64% | EC50 (U251 human glioma cells; Homo sapiens, U-251, U251, 48 h, MTT, read-out: EC50 (concentration needed to obtain 50% of viable cells relative to untreated cells)): ~10 µM | Emax (U251 human glioma cells; Homo sapiens, U-251, U251, at ~10 µM, within 48 h, read-out: maximum effect): 49% | EC50 (glioma cell lines): 2.4 µM | pKa ([1]; α-carboxylate): ~ 2.1 | pKa ([1]; γ-carboxylate): ~ 4.1

CN(Cc1cnc2nc(N)nc(N)c2n1)c1ccc(C(=O)NC(CCC(=O)NCCSSCCN)C(=O)O)cc1 (centres unmarked) [MTX–dicystamine, MTX–CONH–(CH2)2–S–S–(CH2)2–NH2]
IC50 [2, 5]: 0.11 ± 0.012 µM | % Inhibition relative to MTX ([2]; Table 1): 50%

CN(Cc1cnc2nc(N)nc(N)c2n1)c1ccc(C(=O)N[C@@H](CCC(=O)NCCCCCCN)C(=O)O)cc1 [MTX–hexylamine, MTX–CONH–(CH2)6–NH2]
IC50 [2, 5]: 0.08 ± 0.004 µM | % Inhibition relative to MTX ([2]; Table 1): 69% | % of the DHFR inhibitory potency of MTX ([2]; running text and scheme legend): 69%

BSA–S–MAL–(CH2)3–CONH–(CH2)2–S–S–(CH2)2–NH^γCO–MTX [BSA–S–S–MTX]
inhibition compared with MTX (in words) (CNS-1 rat glioma cells): significantly more inhibitory than MTX | antiproliferative potency compared with MTX (in words) (CNS-1 rat glioma cells): less potent than MTX | antiproliferative potency, BSA–S–S–MTX compared with BSA–(CH2)6–MTX (in words) (CNS-1 rat glioma cells): slightly less potent than BSA–(CH2)6–MTX; also recorded: essentially equipotent | Fold Reactivation by DTT [3]: 7.05 fold | reactivation by GSH (in words) ([3]; GSH at a concentration of 1 mM or higher): reactivated | reactivation by glutathione and L-cysteine (in words) [3]: do not reactivate | % Activity Relative to MTX [3]: 14.1% | antiproliferative potency compared with MTX (in words) (U251 human glioma cells): significantly more potent | antiproliferative potency, BSA–S–S–MTX compared with BSA–(CH2)6–MTX (in words) (U251 human glioma cells): slightly less potent than BSA–(CH2)6–MTX; also recorded: essentially equipotent | % Activity Relative to MTX ([2]; Table 2, without DTT): 2.0% | IC50 [2, 6]: 2.75 ± 0.2 µM

BSA–S–MAL–(CH2)3–CONH–(CH2)6–NH^γCO–MTX [BSA–(CH2)6–MTX]
inhibition compared with MTX (in words) (CNS-1 rat glioma cells): significantly more inhibitory than MTX | antiproliferative potency compared with MTX (in words) (CNS-1 rat glioma cells): less potent than MTX | antiproliferative potency, BSA–S–S–MTX compared with BSA–(CH2)6–MTX (in words) (CNS-1 rat glioma cells): essentially equipotent | antiproliferative potency compared with MTX (in words) (U251 human glioma cells): significantly more potent | antiproliferative potency, BSA–S–S–MTX compared with BSA–(CH2)6–MTX (in words) (U251 human glioma cells): essentially equipotent | % Activity Relative to MTX ([2]; Table 2, without DTT): 7.0% | IC50 [2, 6]: 0.79 ± 0.03 µM | maleimide–thiol exchange (in words) ([4]; 100-fold molar excess of GSH, 7 h, pH 7.3, 37 °C, listed as BSA–S–MAL–(CH2)3–CONH–MTX): did not undergo significant maleimide–thiol exchange; also recorded: such exchange does not occur | Absorbance at 372 nm per mg Protein ([4]; Control (no GSH)): 0.479 ± 0.03 | Absorbance at 372 nm per mg Protein ([4]; GSH, 100 molar excess, 7 h, 37 °C, pH 7.3, then dialysis): 0.487 ± 0.03 | cleavage of the spacer peptide bond (in words) ([4]; neutral pH): not cleaved

CN(Cc1cnc2nc(N)nc(N)c2n1)c1ccc(C(=O)NC(CCC(=O)NCCS)C(=O)O)cc1 (centres unmarked) [MTX–cystamine, MTX–CONH–(CH2)2–SH]
IC50 [2, 5]: 0.34 ± 0.011 µM | % Inhibition relative to MTX ([2]; Table 1): 16.2%

BSA–S–MAL–(CH2)3–CO–NH–GSSG–NH^γCO–MTX [BSA–GSSG–MTX]
Fold Reactivation by DTT [3]: 5.16 fold | reactivation by glutathione and L-cysteine (in words) [3]: do not reactivate | % Activity Relative to MTX [3]: 16.2% | reactivation of DHFR inhibitory potency by GSH and cysteine (in words) ([3]; cell-free state): highly effective in reactivating | % Activity Relative to MTX ([2]; Table 2, without DTT): 3.14% | IC50 [2, 6]: 1.75 ± 0.12 µM | antiproliferative efficacy (in words) (cancer cell lines): low antiproliferative efficacy
